Laboratory results reported in US8785381B2 (Emisphere Technologies, Inc., priority 2003, dated 2014).

Experiment: in vivo
Details: male, Sprague-Dawley, rat

CC[C@H](C)[C@H](NC(=O)[C@H](Cc1ccccc1)NC(=O)[C@H](CCC(=O)O)NC(=O)[C@H](CCCCN)NC(=O)[C@H](C)NC(=O)[C@H](C)NC(=O)[C@H](CCC(N)=O)NC(=O)CNC(=O)[C@H](CCC(=O)O)NC(=O)[C@H](CC(C)C)NC(=O)[C@H](Cc1ccc(O)cc1)NC(=O)[C@H](CO)NC(=O)[C@H](CO)NC(=O)[C@@H](NC(=O)[C@H](CC(=O)O)NC(=O)[C@H](CO)NC(=O)[C@@H](NC(=O)[C@H](Cc1ccccc1)NC(=O)[C@@H](NC(=O)CNC(=O)[C@H](CCC(=O)O)NC(=O)[C@H](C)NC(=O)[C@@H](N)Cc1c[nH]cn1)[C@@H](C)O)[C@@H](C)O)C(C)C)C(=O)N[C@@H](C)C(=O)N[C@@H](Cc1c[nH]c2ccccc12)C(=O)N[C@@H](CC(C)C)C(=O)N[C@H](C(=O)N[C@@H](CCCCN)C(=O)NCC(=O)N[C@@H](CCCNC(=N)N)C(N)=O)C(C)C [GLP-1]
Cmax (1 ng/kg): 0.0314 ng/mL | Cmax (2 ng/kg): 0.0324 ng/mL | Cmax (3 ng/kg): 0.0175 ng/mL | Cmax (10 ng/kg): 0.0171 ng/mL | Cmax (50 ng/kg): 0.153 ng/mL | Cmax (0.5 mg/kg): 27.9 ng/mL | Cmax (500 μg/kg): 0.106 ng/mL
